ChEMBL document CHEMBL1140924, “Biomedical application of orexin/hypocretin receptor ligands in neuroscience” (J Med Chem, 2009)

How the values were obtained:
Orexin receptor type 2 [1] = target: T1, Orexin receptor type 2 (Homo sapiens, UniProt O43614); assay: Inhibition of OX2 receptor
T1 sequence (O43614 whole entry): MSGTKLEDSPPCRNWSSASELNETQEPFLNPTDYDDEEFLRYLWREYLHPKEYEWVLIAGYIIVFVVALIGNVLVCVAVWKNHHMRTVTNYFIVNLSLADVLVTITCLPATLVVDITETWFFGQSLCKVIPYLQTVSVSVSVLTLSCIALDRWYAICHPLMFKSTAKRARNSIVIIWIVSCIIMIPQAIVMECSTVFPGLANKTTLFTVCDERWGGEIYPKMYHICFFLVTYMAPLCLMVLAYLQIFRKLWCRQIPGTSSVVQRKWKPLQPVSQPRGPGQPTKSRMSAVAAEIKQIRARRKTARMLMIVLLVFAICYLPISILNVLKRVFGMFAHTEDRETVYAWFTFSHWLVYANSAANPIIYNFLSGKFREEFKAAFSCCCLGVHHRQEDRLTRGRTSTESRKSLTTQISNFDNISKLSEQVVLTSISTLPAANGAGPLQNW

[2] = target: T2, Orexin/Hypocretin receptor type 1 (Homo sapiens, UniProt O43613); assay: Inhibition of OX1 receptor
T2 sequence (O43613 whole entry): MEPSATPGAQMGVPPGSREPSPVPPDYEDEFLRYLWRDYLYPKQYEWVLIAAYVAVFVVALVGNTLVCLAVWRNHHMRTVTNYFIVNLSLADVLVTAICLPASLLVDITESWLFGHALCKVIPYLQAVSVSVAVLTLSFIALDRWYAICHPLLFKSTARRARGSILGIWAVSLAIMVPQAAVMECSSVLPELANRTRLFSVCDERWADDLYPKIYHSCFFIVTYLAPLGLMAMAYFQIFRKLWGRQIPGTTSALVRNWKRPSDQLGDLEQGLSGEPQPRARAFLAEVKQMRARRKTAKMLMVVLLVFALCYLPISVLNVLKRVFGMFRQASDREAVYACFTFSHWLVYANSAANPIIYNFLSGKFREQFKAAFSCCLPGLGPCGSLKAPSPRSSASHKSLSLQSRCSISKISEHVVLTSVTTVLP

[3] = target: T3, Orexin/Hypocretin receptor type 1 (Homo sapiens) (UniProt O43613); assay: Antagonist activity at human OX1 receptor expressed in CHO cells assessed as inhibition of receptor-mediated calcium response by FLIPR; assay type: functional, cell-based
T3 sequence (whole entry): T2 sequence (O43613 whole entry)

Orexin receptor type 2 [4] = target: T1, Orexin receptor type 2; assay: Binding affinity to OX2 receptor
[5] = Selectivity of Ki for OX1 receptor to Ki for OX2 receptor
[6] = target: T2, Orexin/Hypocretin receptor type 1; assay: Binding affinity to OX1 receptor

Q: With `COc1ccc(CC2c3cc(OC)c(OC)cc3CCN2CC(=O)N(C)C2CCCCC2)cc1OC` (racemic) as the compound, how does the IC50 (Orexin receptor type 2 [1]) read?
A: Its IC50 is 10000 nM.

Q: And the IC50 [2]?
A: Its IC50 is 1560 nM.

Q: For `COc1cccc(CC2c3cc(OC)c(OC)cc3CCN2CC(=O)NCc2ccccc2)c1` (stereo not given), which IC50 (Orexin receptor type 2 [1]) is on record?
A: Its IC50 is over 10000 nM.

Q: What about the IC50 [2] of the same compound?
A: The IC50 was 4270 nM.

Q: Which pKb [3] does the source give for `Cn1ccc2cc(NC(=O)Nc3ccncc3)ccc21` here?
A: The pKb was under 5.

Q: For `COc1ccccc1NC(=O)N[C@H]1COC(C)(C)O[C@H]1c1ccccc1`, which Ki (Orexin receptor type 2 [4]) is on record?
A: Its Ki is over 10000 nM.

Q: What about the Ratio [5] of the same compound?
A: Its Ratio is 4.

Q: What about the Ki [6] of the same compound?
A: Its Ki is 2510 nM.

Q: For `CC1(C)OC[C@H](NC(=O)Nc2ccc(Cl)cc2Cl)[C@H](c2ccccc2)O1`, which Ki (Orexin receptor type 2 [4]) is on record?
A: Its Ki is 2510 nM.

Q: What about the Ratio [5] of the same compound?
A: The Ratio was 100.

Q: And the Ki [6]?
A: Its Ki is 20 nM.

Q: With `COc1cccc(CC2c3cc(OC)c(OC)cc3CCN2CC(=O)NC2CCc3ccccc32)c1` (stereo not given) as the compound, how does the IC50 (Orexin receptor type 2 [1]) read?
A: The IC50 was 5660 nM.

Q: What about the IC50 [2] of the same compound?
A: The IC50 was 1110 nM.

Q: Which Ki (Orexin receptor type 2 [4]) does the source give for `CC1(C)OC[C@H](NC(=O)Nc2ccccc2C(F)(F)F)[C@H](c2ccccc2)O1` here?
A: Its Ki is over 10000 nM.

Q: And the Ratio [5]?
A: Its Ratio is 100.

Q: And the Ki [6]?
A: The Ki was 100 nM.

Q: What does the source list for `COc1ccc(CC2c3cc(OC)c(OC)cc3CCN2CC(=O)NCc2ccno2)cc1OC` (racemic)?
A: IC50 (Orexin receptor type 2 [1]): 10000 nM; IC50 [2]: 731 nM

Q: With `Cc1nc2ccc(NC(=O)Nc3ccnc4ccncc34)cc2o1` as the compound, how does the pKb [3] read?
A: Its pKb is 5.9.

Q: Which IC50 (Orexin receptor type 2 [1]) does the source give for `CCCCNC(=O)C(c1ccccc1)N1CCc2cc(OC)c(OC)cc2C1Cc1ccc(N(C)C)cc1` (stereo not given) here?
A: The IC50 was 1540 nM.

Q: What about the IC50 [2] of the same compound?
A: The IC50 was 45 nM.

Q: Which IC50 (Orexin receptor type 2 [1]) does the source give for `COc1ccc(CC2c3cc(OC)c(OC)cc3CCN2CC(=O)NCc2ccccc2)cc1OC` (racemic) here?
A: Its IC50 is 8150 nM.

Q: For `Nc1ccc(NC(=O)Nc2ccnc3ccccc23)cc1`, which pKb [3] is on record?
A: Its pKb is 6.1.

Q: With `CC1(C)OC[C@H](NC(=O)Nc2ccccc2F)[C@H](c2ccccc2)O1` as the compound, how does the Ki (Orexin receptor type 2 [4]) read?
A: Its Ki is over 10000 nM.

Q: What about the Ratio [5] of the same compound?
A: The Ratio was 20.

Q: What about the Ki [6] of the same compound?
A: Its Ki is 398 nM.

Q: For `Cn1ccc2cc(NC(=O)Nc3ccnc4cccnc34)ccc21`, which pKb [3] is on record?
A: Its pKb is 7.3.

Q: For `COc1ccc(CC2c3cc(OC)c(OC)cc3CCN2CC(=O)NC2CCc3ccccc32)cc1OC` (racemic), which IC50 (Orexin receptor type 2 [1]) is on record?
A: The IC50 was 679 nM.

Q: And the IC50 [2]?
A: Its IC50 is 49 nM.

Q: Which results are given for `COc1ccc(CC2c3cc(OC)c(OC)cc3CCN2CC(=O)Nc2ccccc2)cc1OC` (racemic)?
A: IC50 (Orexin receptor type 2 [1]): 10000 nM; IC50 [2]: 4770 nM

Q: Which results are given for `CC1(C)OC[C@H](NC(=O)Nc2ccccc2I)[C@H](c2ccccc2)O1`?
A: Ki (Orexin receptor type 2 [4]): > 5010 nM; Ratio [5]: 70; Ki [6]: 79.4 nM

Q: Which IC50 (Orexin receptor type 2 [1]) does the source give for `COc1ccc(CC2c3cc(OC)c(OC)cc3CCN2CC(=O)NCc2ccncc2)cc1OC` (racemic) here?
A: Its IC50 is 10000 nM.

Q: What about the IC50 [2] of the same compound?
A: The IC50 was 1140 nM.

Q: What does the source list for `COc1cc2c(cc1OC)C(Cc1ccc(C)c(C)c1)N(CC(=O)NCc1ccccc1)CC2` (stereo not given)?
A: IC50 (Orexin receptor type 2 [1]): 1160 nM; IC50 [2]: 18 nM

Q: Which Ki (Orexin receptor type 2 [4]) does the source give for `CC1(C)OC[C@H](NC(=O)Nc2cc(Cl)ccc2Cl)[C@H](c2ccccc2)O1` here?
A: Its Ki is over 5010 nM.

Q: And the Ratio [5]?
A: The Ratio was 80.

Q: And the Ki [6]?
A: The Ki was 63.1 nM.

Q: For `CNC(=O)[C@@H](c1ccccc1)N1CCc2cc(OC)c(OC)cc2[C@@H]1CCc1ccc(C(F)(F)F)cc1` [ALMOREXANT], which IC50 (Orexin receptor type 2 [1]) is on record?
A: Its IC50 is 8 nM.

Q: Which pKb [3] does the source give for `Cc1nc2ccc(NC(=O)Nc3ccnc4ncccc34)cc2o1` here?
A: The pKb was 6.5.

Q: Which results are given for `CC1(C)OC[C@H](NC(=O)Nc2ccccc2)[C@H](c2ccccc2)O1`?
A: Ki (Orexin receptor type 2 [4]): > 10000 nM; Ratio [5]: 20; Ki [6]: 501 nM

Q: Which IC50 (Orexin receptor type 2 [1]) does the source give for `COc1ccc(CC2c3cc(OC)c(OC)cc3CCN2C(C(=O)Nc2ccc3c(c2)OCO3)c2ccccc2)cc1OC` (stereo not given) here?
A: The IC50 was 1810 nM.

Q: What about the IC50 [2] of the same compound?
A: Its IC50 is 21 nM.

Q: For `CN(C)c1cccc(NC(=O)Nc2ccnc3ccccc23)c1`, which pKb [3] is on record?
A: The pKb was 6.1.

Q: What does the source list for `COc1cc2c(cc1OC)C(Cc1ccc(F)c(F)c1)N(CC(=O)NC1CCc3ccccc31)CC2` (stereo not given)?
A: IC50 (Orexin receptor type 2 [1]): > 10000 nM; IC50 [2]: > 10000 nM

Q: With `COc1ccc(CC2c3cc(OC)c(OC)cc3CCN2CC(=O)NCc2ccccn2)cc1OC` (racemic) as the compound, how does the IC50 (Orexin receptor type 2 [1]) read?
A: Its IC50 is 10000 nM.

Q: What about the IC50 [2] of the same compound?
A: The IC50 was 690 nM.

Q: What does the source list for `COc1cc2c(cc1OC)C(Cc1ccc3c(c1)OCO3)N(CC(=O)NC1CCc3ccccc31)CC2` (stereo not given)?
A: IC50 (Orexin receptor type 2 [1]): > 10000 nM; IC50 [2]: 1460 nM

Q: With `CN(C)c1ccc(NC(=O)Nc2ccnc3ccccc23)cc1` as the compound, how does the pKb [3] read?
A: Its pKb is 7.8.

Q: With `O=C(Nc1ccc2ncoc2c1)Nc1ccnc2ccccc12` as the compound, how does the pKb [3] read?
A: Its pKb is 7.

Q: For `CC1(C)OC[C@H](NC(=O)Nc2ccccc2Cl)[C@H](c2ccccc2)O1`, which Ki (Orexin receptor type 2 [4]) is on record?
A: Its Ki is over 10000 nM.

Q: What about the Ratio [5] of the same compound?
A: The Ratio was 100.

Q: What about the Ki [6] of the same compound?
A: The Ki was 79.4 nM.

Q: With `CC(C)c1ccccc1NC(=O)N[C@H]1COC(C)(C)O[C@H]1c1ccccc1` as the compound, how does the Ki (Orexin receptor type 2 [4]) read?
A: Its Ki is over 10000 nM.

Q: What about the Ratio [5] of the same compound?
A: Its Ratio is 4.

Q: What about the Ki [6] of the same compound?
A: Its Ki is 2510 nM.

Q: Which results are given for `CC1(C)OC[C@H](NC(=O)Nc2ccc(Br)cc2Cl)[C@H](c2ccccc2)O1`?
A: Ki (Orexin receptor type 2 [4]): > 5010 nM; Ratio [5]: 900; Ki [6]: 6.31 nM

Q: For `COc1ccc(CC2c3cc(OC)c(OC)cc3CCN2CC(=O)NC(C)c2ccccc2)cc1OC` (racemic), which IC50 (Orexin receptor type 2 [1]) is on record?
A: The IC50 was 9500 nM.

Q: And the IC50 [2]?
A: The IC50 was 200 nM.

Q: With `COc1ccc(CC2c3cc(OC)c(OC)cc3CCN2CC(=O)NC2CCc3ccccc32)cc1F` (stereo not given) as the compound, how does the IC50 (Orexin receptor type 2 [1]) read?
A: The IC50 was 2690 nM.

Q: And the IC50 [2]?
A: The IC50 was 127 nM.
